In US12528802B2, “Heterocyclic compound” (Takeda Pharmaceutical Company Limited, priority 2019, dated 2026):

Key:
[1] = tested on: glucosylceramide (GlcCer); assay: Pharmacodynamic test using Gaucher's disease model mouse (glucosylceramide lowering effect); type: in vivo; conditions: Gba D409V KI mice, two hours after last administration, ± standard deviation
Description: (§1) Pharmacodynamic Test Using Gaucher's Disease Model Mouse (Glucosylceramide and Glucosylsphingosine Lowering Effects)
(§2) Glucosylsphingosine (GlcSph) is known to be produced by deacylation of GlcCer and accumulated in tissues in patient with Gaucher's disease. Therefore, the GlcSph lowering effect of the compound of Example 119 due to the glucosylceramide synthase inhibitory effect was evaluated by measuring the GlcSph concentration in the tissue. For the experiment, Gba D409V KI mice, which were Gaucher's disease model mice in which GlcSph is accumulated, were purchased from Jackson Laboratory and used.
(§3) The test compound was prepared in a 0.5% methylcellulose suspension to a dose of 10 or 30 mg/kg, and orally administered. The administration was performed once a day for 2 months. Two hours after the last administration, the blood and cerebral cortex were collected, the plasma was prepared from the blood, and methanol is added to the cerebral cortex to prepare a homogenate. A mixed solution of isopropanol and ethanol was added to the obtained plasma and the methanol homogenate of the cerebral cortex, and the lipids were extracted. The GlcCer and GlcSph concentrations of the extracted samples were measured by LC/MS/MS.
(§4) The results of GlcCer were calculated from the following formula: (GlcCer concentration in the test compound administration group)/(GlcCer concentration in the 0.5% methylcellulose suspension administration group)×100. The results of GlcSph were calculated from the following formula: (GlcSph concentration in the test compound administration group)/(GlcSph concentration in the 0.5% methylcellulose suspension administration group)×100. The standard deviation values were also shown.

[2] = tested on: Glucosylsphingosine (GlcSph); assay: Pharmacodynamic test using Gaucher's disease model mouse (glucosylsphingosine lowering effect); type: in vivo; conditions: Gba D409V KI mice, two hours after last administration, ± standard deviation
Description: as §1, §2, §3, §4

[3] = tested on: glucosylceramide (GlcCer); assay: Pharmacodynamic test using mouse (glucosylceramide lowering effect); type: in vivo; conditions: C57BL/6J mice, 10 mg/kg oral, six hours after administration, ± standard deviation
Description: Pharmacodynamic Test Using Mouse (Glucosylceramide Lowering Effect)
For the experiment, C57BL/6J mice were purchased from CLEA Japan, Inc. and used. Glucosylceramide synthase is an enzyme that synthesizes glucosylceramide (GlcCer) from uridine diphosphate glucose and ceramide. Therefore, the glucosylceramide synthase inhibitory effect of the compound of Example 119 was evaluated by measuring the GlcCer concentration in the tissue.
as §3, with “10” for “10 or 30”, “Six” for “The administration was performed once a day for 2 months. Two”, “the” for “the last”, “GlcCer” for “GlcCer and GlcSph”
The results were calculated from the following formula: (GlcCer concentration in the test compound administration group)/(GlcCer concentration in the 0.5% methylcellulose suspension administration group)×100.
The standard deviation values were also shown.

[4] = biological target: T1, glucosylceramide synthase (Homo sapiens, UniProt Q16739); assay: Glucosylceramide synthase (GCS) enzyme assay, microsome fraction, C8 glucosylceramide quantified by Rapidfire MS/MS; type: biochemical; conditions: test compound 10 μM; 1.7 μM UDP-glucose, 3 μM C8 ceramide; room temperature 60 min; read-out: GCS enzyme inhibitory rate at 10 μM (%) (% of control)
T1 construct: made in house; host or cells: Expi293F cells (transient expression, pcDNA3.3-TOPO vector); microsome fraction used as enzyme source
T1 sequence (Q16739 1-394): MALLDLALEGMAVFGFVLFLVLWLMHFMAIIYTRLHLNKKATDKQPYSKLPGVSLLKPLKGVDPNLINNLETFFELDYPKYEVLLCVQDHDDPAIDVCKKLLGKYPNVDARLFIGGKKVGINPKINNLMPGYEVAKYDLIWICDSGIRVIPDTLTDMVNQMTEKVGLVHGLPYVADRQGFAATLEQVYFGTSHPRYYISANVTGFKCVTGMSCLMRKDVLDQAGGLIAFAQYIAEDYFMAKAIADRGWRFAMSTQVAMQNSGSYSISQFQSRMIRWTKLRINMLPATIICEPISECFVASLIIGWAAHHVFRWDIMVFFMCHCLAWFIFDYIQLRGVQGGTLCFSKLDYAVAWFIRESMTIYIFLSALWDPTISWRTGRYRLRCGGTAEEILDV
Outline: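 Test compound, 10 μM final, was run against human GCS from transfected Expi293F microsome fractions, using substrate solution of 6 μM C8 ceramide (in DOPC liposomes) plus 3.4 μM UDP-glucose, pH 7.5 Tris buffer, 60 min, room temperature. Product C8 glucosylceramide measured by Rapidfire MS/MS against an internal standard, % inhibition referenced to no-enzyme and DMSO wells.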

[5] = 10 mg/kg oral once a day for 2 months, cerebral cortex
[6] = 10 mg/kg oral once a day for 2 months, plasma
[7] = 30 mg/kg oral once a day for 2 months, cerebral cortex
[8] = 30 mg/kg oral once a day for 2 months, plasma

inhibition at 10 µM [4] [%] | SMILES | GlcCer (% Control) cerebral cortex (10 mg/kg) [1, 5] [% Control] | GlcCer (% Control) Plasma (10 mg/kg) [1, 6] [% Control] | GlcCer (% Control) cerebral cortex (30 mg/kg) [1, 7] [% Control] | GlcCer (% Control) Plasma (30 mg/kg) [1, 8] [% Control] | GlcSph (% Control) cerebral cortex (10 mg/kg) [2, 5] [% Control] | GlcSph (% Control) Plasma (10 mg/kg) [2, 6] [% Control] | GlcSph (% Control) cerebral cortex (30 mg/kg) [2, 7] [% Control] | GlcSph (% Control) Plasma (30 mg/kg) [2, 8] [% Control] | GlcCer (% Control) cerebral cortex ([3]; cerebral cortex) [% Control] | GlcCer (% Control) plasma ([3]; plasma) [% Control]
100 | CC(C)(O)c1ccc(N2Cc3c(ccnc3-c3ccc(F)cc3OCC(F)(F)F)C2=O)cc1 [Example 119, 4-[4-fluoro-2-(2,2,2-trifluoroethoxy)phenyl]-2-[4-(2-hydroxypropan-2-yl)phenyl]-2,3-dihydro-1H-pyrrolo[3,4-c]pyridin-1-one] | 58 ± 6 | 40 ± 10 | 40 ± 7 | 21 ± 4 | 73 ± 27 | 58 ± 16 | 61 ± 20 | 36 ± 9 | 52 ± 7 | 49 ± 14
89 | CS(=O)(=O)c1ccc(N2Cc3c(ccnc3-c3ccc(F)cc3OCC(F)(F)F)C2=O)cc1 [Example 88, 4-[4-fluoro-2-(2,2,2-trifluoroethoxy)phenyl]-2-[4-(methanesulfonyl)phenyl]-2,3-dihydro-1H-pyrrolo[3,4-c]pyridin-1-one] | – | – | – | – | – | – | – | – | – | –
99 | O=C1c2cc(C3CCCOC3)nc(-c3ccc(F)cc3OCC(F)(F)F)c2CN1c1ccc(F)cc1 (racemic) [Example 386, rac-2-(4-fluorophenyl)-4-[4-fluoro-2-(2,2,2-trifluoroethoxy)phenyl]-6-(oxan-3-yl)-2,3-dihydro-1H-pyrrolo[3,4-c]pyridin-1-one] | – | – | – | – | – | – | – | – | – | –
